Reference: patent US20110124579A1, “SIALIC ACID TO SUPPORT SALIVATION” (NESTEC S.A., priority 2008, published 2011)
“Also recorded” adds a separate entry of the source.

System: rats
Test: Pilocarpine stimulated salivation (cholinergic neuronal activity) in young adult and aged rats after 3 weeks on diet
Type: in vivo, rat
Experimental: Young adult (3 months) and aged rats (24 months) were fed a semisynthetic diet containing sialic acid at a concentration of 0.15 g/100 g diet (control) or a semi-synthetic diet additionally supplemented with sialic acid to a final concentration of 0.9 g/100 g diet (Sia).
After 3 weeks on the experimental diet neuronal activity of cholinergic neurons was assessed. To this end rats were injected pilocarpine (IP, 1.5 mg/kg body weight for 24 months rats and 2 mg/kg body weight for 3 months rats). Pilocarpine is a muscarinic agonist acting on cholinergic neurons, which leads to salivation. Thus stimulated saliva collection was timed with a chronometer. After about 7 minutes collection was stopped.

CC(=O)N[C@H]1[C@H]([C@H](O)[C@H](O)CO)OC(O)(C(=O)O)C[C@@H]1O (some centres unmarked) [sialic acid, N-acetylneuraminic acid]
stimulated salivation / neuronal activity of cholinergic neurons (stimulated saliva production per time) (aged rats (24 months), diet supplemented with sialic acid to 0.9 g/100 g diet vs control 0.15 g/100 g, 3 weeks, pilocarpine IP 1.5 mg/kg, 1.5 mg/kg): increased stimulated salivation equal to the salivation found in young animals; also recorded: significantly increased neuronal activity; also recorded: reached similar stimulated salivation values as the young animals; also recorded: proper salivation was re-established in aged animals | Pilocarpine stimulated salivation, aged vs young adult rats (young adult (3 m) and old age (24 m) rats, NeuAc enriched diet vs control diet for 3 weeks, FIG. 2, N=8-10): increased stimulated salivation in aged rats much more efficiently than in young adult rats
